# Laboratory results as given in ChEMBL document CHEMBL4339189, “Dissymmetric pyridyl-substituted 3,5-bis(arylidene)-4-piperidones as anti-hepatoma agents by inhibiting NF-κB pathway activation” (Eur J Med Chem, 2019).
# Activity calls are given as the source filed them. The calls are words filed in the database; no cut-off is given here.
# Assays:
# [1] = biological target: Transcription factor p65 (Mus musculus) (UniProt Q04207); assay: Inhibition of NFkappaB activation in mouse RAW264.7 cells assessed as reduction in TNFalpha-induced p65 phosphorylation at 1 to 4 uM incubated for 2 hrs after pre-incubation with LPS for 15 mins by Western blot analysis; type: cell-based
# [2] = biological target: T1, NF-kappa-B inhibitor alpha (Mus musculus) (UniProt Q9Z1E3); assay: Inhibition of NFkappaB signalling activation in mouse RAW264.7 cells assessed as reduction in […] IkBalpha phosphorylation at 1 to 4 uM incubated for 2 hrs after pre-incubation with LPS for 15 mins by Western blot analysis; type: cell-based
# T1 sequence (whole entry): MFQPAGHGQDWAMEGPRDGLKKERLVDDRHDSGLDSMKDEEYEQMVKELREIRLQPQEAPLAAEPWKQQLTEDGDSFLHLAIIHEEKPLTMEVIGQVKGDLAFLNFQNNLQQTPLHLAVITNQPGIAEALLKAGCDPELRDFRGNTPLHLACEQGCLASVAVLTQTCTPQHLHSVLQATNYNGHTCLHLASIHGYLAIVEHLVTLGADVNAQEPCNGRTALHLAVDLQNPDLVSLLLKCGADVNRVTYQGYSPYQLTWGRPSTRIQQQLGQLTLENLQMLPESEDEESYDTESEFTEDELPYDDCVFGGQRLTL
# HepG2 [3] = assay: Induction of apoptosis in human HepG2 cells assessed as increase in apoptotic cell population at 2.0 uM incubated for 24 hrs by Annexin V-FITC/propidium iodide staining based flow cytometry relative to control; type: functional
# HepG2 [4] = assay: Induction of apoptosis in human HepG2 cells assessed as increase in cleaved caspase-3 expression up to 4 uM after 24 hrs by Western blot analysis; type: functional, cell-based
# QGY-7703 = assay: Cytotoxicity against human QGY7703 cells assessed as reduction in cell viability incubated for 24 hrs by MTT assay; type: functional, cell-based
# [5] = biological target: Transcription factor p65 (Mus musculus) (UniProt Q04207); assay: Inhibition of LPS-induced NFkappaB p65 nuclear translocation in mouse RAW264.7 cells at 4 uM incubated for 2 hrs after pre-incubation with LPS for 15 mins by DAPI staining-based immunofluorescence assay; type: cell-based
# HepG2 [6] = assay: Antitumor activity against human HepG2 cells xenografted in Balb/c nude mouse assessed as effect on tumor volume level at 1 mg/kg, ip administered every 2 days for 20 days and measured every 2 days; type: functional, organism-based
# HepG2 [7] = assay: Induction of apoptosis in human HepG2 cells assessed as increase in apoptotic cell population at 4.0 uM incubated for 24 hrs by Annexin V-FITC/propidium iodide staining based flow cytometry; type: functional
# Mus musculus = assay: Antiinflammatory activity in human HepG2 cells xenografted Balb/c nude mouse assessed as reduction in TNFalpha protein expression at 1 mg/kg, ip administered every 2 days for 20 days and measured every 2 days by immunohistochemistry; type: functional, organism-based
# Chain of Transcription factor p65 (Mus musculus) (Q04207 whole entry): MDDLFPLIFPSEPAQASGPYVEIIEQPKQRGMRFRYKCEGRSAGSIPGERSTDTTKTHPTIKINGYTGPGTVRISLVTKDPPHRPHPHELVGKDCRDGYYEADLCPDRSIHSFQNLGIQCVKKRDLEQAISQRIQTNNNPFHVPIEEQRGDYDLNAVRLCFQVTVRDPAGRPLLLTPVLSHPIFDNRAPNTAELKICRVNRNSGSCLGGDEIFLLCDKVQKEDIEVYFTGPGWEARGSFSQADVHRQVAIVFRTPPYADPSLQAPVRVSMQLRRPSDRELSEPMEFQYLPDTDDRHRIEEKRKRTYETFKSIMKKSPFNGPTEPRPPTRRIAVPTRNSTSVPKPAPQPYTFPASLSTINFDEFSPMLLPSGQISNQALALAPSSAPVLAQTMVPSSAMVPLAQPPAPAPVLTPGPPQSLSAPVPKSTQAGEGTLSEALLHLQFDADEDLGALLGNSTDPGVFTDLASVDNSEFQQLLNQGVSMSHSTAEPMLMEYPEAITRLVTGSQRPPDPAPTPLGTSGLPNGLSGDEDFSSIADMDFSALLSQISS
compound,measurement,setting,value
O=C1/C(=C/c2cccnc2)CN(S(=O)(=O)c2ccc(C(F)(F)F)cc2)C/C1=C\c1ccccc1C(F)(F)F,inhibition,[1],Dose-dependent effect
same,inhibition,[2],Dose-dependent effect
same,Activity,HepG2 [3],40%
same,Activity,HepG2 [4],Dose-dependent effect
same,Activity,QGY-7703,Dose-dependent effect
same,IC50,"QGY-7703; QGY-7703, 24 h",1500 nM
same,inhibition,[5],Active
same,Activity,HepG2 [6],inactive
same,Activity,HepG2 [7],Dose-dependent effect
same,Activity,Mus musculus,Active
